In US20220009951A1, “TORSEMIDE PHOSPHATE PRODRUG, PREPARATION METHOD AND COMPOSITION THEREOF” (Shanghai Xunhe Pharmaceutical Technology Co. Ltd., priority 2019, published 2022):
“Also recorded” adds a separate entry of the source. Counter-ions that a name gives are not always drawn.

What was measured:
Male SD rats = assay: Comparison of diuretic effects (urine output of saline-loaded rats); format: in vivo, rat; conditions: 30 mL/kg normal saline intragastrically, drug 10 mg/kg iv, urine collected for 4 h
Procedure: Comparison of Diuretic Effects:
Male SD rats (body weight 180±20 g) were divided into seven groups randomly, three rats a group, and each rat was administered intragastrically 30 mL/kg normal saline. After intragastric administration of normal saline, except the blank control group, each group was given one drug (10 mg/kg, iv, 1 mg/mL, formulation prescription: 0.5% methylcellulose), and the urination was collected for 4 hours.

[1] = Comparison of water solubility of different forms of samples
[2] = cited from earlier work
[3] = cited from earlier work; remark: listed apart in the source

Conclusion (water solubility class) [1] | Structure (SMILES) | Urine output (mL/kg, 4 h) (Male SD rats) [mL/kg] | solubility in 0.1 mol/L sodium hydroxide solution ([2]; 0.1 mol/L sodium hydroxide solution) | solubility in water ([2]; water) | pKa value [3]
soluble | Cc1cccc(Nc2ccncc2S(=O)(=O)N(COP(=O)(O)O)C(=O)NC(C)C)c1 [Compound of formula I, N-hydroxymethyl-torsemide phosphate] | 105.4 |  |  | 
 | Cc1cccc(Nc2ccncc2S(=O)(=O)N(COP(=O)([O-])[O-])C(=O)NC(C)C)c1.[Na+].[Na+] [Compound of formula Ia, disodium N-hydroxymethyl-torsemide phosphate] | 121.6 |  |  | 
 | Cc1cccc(Nc2ccncc2S(=O)(=O)N(COP(=O)([O-])[O-])C(=O)NC(C)C)c1.[K+].[K+] [Compound of formula Ib, dipotassium N-hydroxymethyl-torsemide phosphate] | 116.8 |  |  | 
easily soluble | Cc1cccc(Nc2ccncc2S(=O)(=O)N(COP(=O)(O)O)C(=O)NC(C)C)c1 [Compound of formula Ic, N-hydroxymethyl-torsemide phosphate triethylammonium salt] | 103.4 |  |  | 
easily soluble | Cc1cccc(Nc2ccncc2S(=O)(=O)N(COP(=O)(O)O)C(=O)NC(C)C)c1 [Compound of formula Id, N-hydroxymethyl-torsemide phosphate tri-n-butylammonium salt] | 105.6 |  |  | 
 | Cc1cccc(Nc2ccncc2S(=O)(=O)NC(=O)NC(C)C)c1 [Torsemide, 1-[4-(3-methylphenyl)aminopyridin-3-yl]sulfonyl-3-isopropylurea] | 100.3 | slightly soluble | almost insoluble; also recorded: very slightly soluble | 6.44
